Patent US20260035385A1, “BENZO NITROGEN-CONTAINING HETEROAROMATIC RING DERIVATIVE AND USE THEREOF IN MEDICINE” (Xizang Haisco Pharmaceutical Co., Ltd., priority 2021, published 2026)

How the values were obtained:
[1] = Pharmacokinetic test in mice; type: in vivo; details: male, C57, mouse, plasma, po, i.g. (10 mg/kg)
Description: Test objective: In this experiment, a single dose of test compounds was administered to C57 mice intravenously and intragastrically, the concentrations of the test compounds in plasma of mice were measured, and the pharmacokinetic characteristics of the test compounds in mice were evaluated.
Experimental animals: Male C57 mice, 20-25 g, 6-8 weeks old, 18 mice/compound. purchased from Chengdu Ddossy Experimental Animals Co., Ltd.
Experimental method: On the day of the experiment, 18 C57 mice were randomly grouped according to their body weight. The animals were fasted with water available for 12 to 14 hours one day before the administration of a test compound, and were fed 4 hours after the administration.
Sampling: Before and after the administration, 0.08 mL of blood sample was drawn from the orbit under isoflurane anesthesia, and placed in an EDTAK2 centrifuge tube. Centrifugation was carried out at 5000 rpm at 4° C. for 10 min, and the plasma was collected.
Time points for plasma collection in IV&PO group: 0, 5 min, 15 min, 30 min, 1 h, 2 h, 4 h, 6 h, 8h, and 24 h.
(§1) Before analysis and detection, all samples were stored at −60° C. The samples were analyzed quantitatively by LC-MS/MS.

[2] = Pharmacokinetic test of dogs; type: in vivo; details: male, beagle, dog, plasma, po, i.g. (5 mg/kg)
Description: (§2) Test objective: In this experiment, a single dose of test compounds was administered to beagle dogs intravenously and intragastrically, and the concentrations of the test compounds in plasma of the beagle dogs were measured to evaluate pharmacokinetic characteristics of the test compounds in the beagle dogs.
Experimental animals: Male beagle dogs, 8-11 kg, 1-3 years old, 6 dogs/compound. purchased from Beijing Marshall Biotechnology Co. Ltd.
Experimental method: on the day of the test, 6 beagle dogs were randomly grouped according to their body weights. The animals were fasted with water available for 14 to 18 hours one day before the administration of a test compound, and were fed 4 hours after the administration.
Sampling: Before and after the administration, 1.0 mL of blood was taken from the jugular veins or limb veins, and placed in an EDTAK2 centrifuge tube. Centrifugation was carried out at 5000 rpm at 4° C. for 10 min, and the plasma was collected.
(§3) Time points for plasma collection in IV&PO group: 0, 5 min, 15 min, 30 min, 1 h, 2 h, 4 h, 6 h, 8h, 10 h, 12h, and 24 h.
as §1

[3] = Stability in liver microsome (HLM); type: in vitro ADME, human; details: 0.50 mg/mL microsomal protein, 1.00 μM, NADPH, 37 °C
Description: (§4) The total volume of the incubation system was 100 μL, the medium was 100 mM phosphate buffer (PBS, pH 7.4), including liver microsomal protein with a final concentration of 0.50 mg/mL, 1.00 μM test substance and 1.00 mM NADPH, 37° C. water bath was used for incubation, and 300 μL of ice-cold acetonitrile containing internal standard was added to terminate the reaction after 0, 5, 10, 20, 30, and 60 min of reaction, respectively. The negative control was incubated with heat-inactivated liver microsomes of the corresponding species, and the incubation time points were 0 and 60 min respectively. The LC/MS/MS method was used to detect the concentration of the test substance in the sample and the remaining rate of the compound was calculated.

[4] = Stability in liver microsome (RLM); type: in vitro ADME, rat; details: 0.50 mg/mL microsomal protein, 1.00 μM, NADPH, 37 °C
Description: as §4

[5] = Stability in liver microsome (CLM); type: in vitro ADME, cynomolgus monkey; details: 0.50 mg/mL microsomal protein, 1.00 μM, NADPH, 37 °C
Description: as §4

[6] = Pharmacokinetic experiment in monkeys; type: in vivo, cynomolgus monkeys; details: compared with the trifluoroacetate of LNP023, in words
Description: as §2, with “to cynomolgus monkeys” for “to beagle dogs”, “the monkeys” for “the beagle dogs”, “the monkeys.” for “the beagle dogs.”
Experimental animals: Male cynomolgus monkeys, 3-5 kg, 3-6 years old, 6 monkeys/compound. Purchased from Suzhou Xishan Biotechnology Inc.
Experimental method: on the day of the test, 6 monkeys were randomly grouped according to their body weights. The animals were fasted with water available for 14 to 18 hours one day before the administration of a test compound, and were fed 4 hours after the administration.
Sampling: before and after the administration, 1.0 mL of blood was taken from the limb veins, and placed in an EDTAK2 centrifuge tube. Centrifugation was carried out at 5000 rpm at 4° C. for 10 min, and the plasma was collected.
as §3, §1

Caco2 permeability test = type: in vitro ADME; details: human; Caco-2 monolayer, 2 μM, 2 h, pH 7.4
Description: (§5) The experiment used a monolayer of Caco-2 cells incubated in triplicate in a 96-well Transwell plate. […] Acetonitrile containing internal standard was then added to precipitate the protein. […] The integrity of the cell monolayer after 2 h of incubation was assessed by leakage of Lucifer Yellow.

Caco-2 cells = test: Caco2 permeability test; type: in vitro ADME; details: Caco2, compared with the trifluoroacetate of LNP023, in words
Description: as §5

[7] = Stability in liver microsome (DLM); type: in vitro ADME, dog; details: 0.50 mg/mL microsomal protein, 1.00 μM, NADPH, 37 °C
Description: as §4

[8] = Stability in liver microsome (MouLM); type: in vitro ADME, mouse; details: 0.50 mg/mL microsomal protein, 1.00 μM, NADPH, 37 °C
Description: as §4

[9] = tested on: complement alternative pathway; test: Biological Test Example 2: complement alternative pathway inhibition, IBL alternative pathway kit, serum from healthy volunteers; type: biochemical, human; details: LPS-coated plate, 37 °C 1 h, read-out: IC50 for inhibiting alternative pathway
Description: The inhibitory effect of the compounds on the complement alternative pathway was detected using the IBL alternative pathway kit (COMPL AP330 RUO). Serum from healthy volunteers was collected and 1 portion was diluted with a buffer of 20 mM EDTA in gelatin (0.15 mM CaCl2, 141 mM NaCl, 4.5 mM MgCl2, 4.2 mM HEPES, and 0.1% gelatin at pH 7.4) to 50% (v/v), and 1 portion was diluted to 50% (v/v) with a buffer of 20 mM EGTA in gelatin. The compounds were prepared in DMSO to a working solution 100 times the final concentration. Before use, 50% of the above serum was diluted 1/18 with the AP diluent in the kit. 1 part of the compound working solution (v/v) or DMSO (positive control PC) was added to 99 parts of the diluted serum containing EGTA for pretreatment for 30 min, and 1 part of DMSO (v/v) was added to 99 parts of the diluted serum containing EDTA, as negative control (NC). The serum pretreated with the above compounds (or DMSO) was added at […] to the LPS-coated 96-well plate, incubated at 37° C. for 1 h, and the plate was washed 3 times with washing solution in the kit; the conjugated chromogenic substrate was added according to the instruction in the kit, and the absorbance was read at 405 nm with a microplate reader. The inhibitory activity of the compounds on alternative pathway was calculated using the following formula.
OD^CPD was the OD value when the inhibitor was added, OD^NC was the OD value of the negative control, and OD^PC was the OD value of the positive control.
Graphpad was used to perform nonlinear regression on the final concentrations and inhibition rates of the compounds to obtain the IC50 of the compounds for inhibiting the alternative pathway.

FB = FB (Homo sapiens, UniProt P00751); test: biochemical
Description: CVF (1 μM), FB (1 μM) and FD (300 nM) were incubated in Assay buffer (pH=7.4, 10 mM MgCl2, 0.05% (m/v), CHAPS) for 3 h at room temperature, so that all FB was cleaved into Baby FD and CVF:Bb complex was generated. SDS-PAGE analysis confirmed that FB was completely hydrolyzed, that is, the concentration of the generated CVF:Bb complex was 300 nM. The CVF:Bb complex was diluted to a concentration of 5 nM using Assay buffer and preincubated with different concentrations of the compounds in assay buffer for 1 h at room temperature. C3 was added to a final concentration of 1 μM to start the enzymatic reaction. After reacting at room temperature for 1 h, protease inhibitor mixture (Roche Complete Inhibitor Tablets) was added to stop the enzyme reaction. Human C3a ELISA kit (Hycult HK354-01) was used to determine the generation of C3a according to the instruction in the kit. The FB activity inhibition rate was plotted against the inhibitor concentration, and graphpad nonlinear regression was used to calculate the IC50 value.

C3a levels in mice = test: Biological Test Example 4: LPS mouse model, plasma C3a level; type: in vivo; details: compound given 3.5 h after LPS, plasma at 7.5 h
Description: Mice were intravenously given 0.5 mg/ml LPS solution at 100 μL/mouse to create a model, and the naive group was given physiological saline. Mice were given the compounds 3.5 h after injection of physiological saline/LPS solution, and the naive group and model group were given vehicle (0.5% MC+0.5% Tween 80). 7.5 h after the mice in each group were injected with physiological saline/LPS, blood was collected from the orbit and the plasma was separated. The plasma C3a level was detected using mouse C3a ELISA kit (NOVUS/NBP2-70037), and the inhibition rate of C3a was calculated. The formula is as follows: […]
Among them: Ct, C3a level after administration; Cnaive, C3a level of naive group; Cmodel, C3a level of model group.

FB, sequence (P00751 260-764 limits assumed): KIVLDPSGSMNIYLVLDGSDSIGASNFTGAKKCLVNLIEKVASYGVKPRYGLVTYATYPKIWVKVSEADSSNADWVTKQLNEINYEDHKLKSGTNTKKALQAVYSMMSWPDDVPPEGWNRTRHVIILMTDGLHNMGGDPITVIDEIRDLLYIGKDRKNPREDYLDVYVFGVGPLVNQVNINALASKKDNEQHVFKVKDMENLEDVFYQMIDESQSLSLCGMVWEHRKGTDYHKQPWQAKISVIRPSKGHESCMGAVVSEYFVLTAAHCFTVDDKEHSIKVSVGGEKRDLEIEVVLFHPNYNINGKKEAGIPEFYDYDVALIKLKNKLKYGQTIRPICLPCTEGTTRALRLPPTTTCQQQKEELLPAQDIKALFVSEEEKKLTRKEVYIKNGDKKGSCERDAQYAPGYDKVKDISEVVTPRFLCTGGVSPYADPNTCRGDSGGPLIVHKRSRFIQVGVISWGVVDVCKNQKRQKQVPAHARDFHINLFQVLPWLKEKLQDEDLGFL
FB, sequence (Q91132 23-649 partner limits assumed): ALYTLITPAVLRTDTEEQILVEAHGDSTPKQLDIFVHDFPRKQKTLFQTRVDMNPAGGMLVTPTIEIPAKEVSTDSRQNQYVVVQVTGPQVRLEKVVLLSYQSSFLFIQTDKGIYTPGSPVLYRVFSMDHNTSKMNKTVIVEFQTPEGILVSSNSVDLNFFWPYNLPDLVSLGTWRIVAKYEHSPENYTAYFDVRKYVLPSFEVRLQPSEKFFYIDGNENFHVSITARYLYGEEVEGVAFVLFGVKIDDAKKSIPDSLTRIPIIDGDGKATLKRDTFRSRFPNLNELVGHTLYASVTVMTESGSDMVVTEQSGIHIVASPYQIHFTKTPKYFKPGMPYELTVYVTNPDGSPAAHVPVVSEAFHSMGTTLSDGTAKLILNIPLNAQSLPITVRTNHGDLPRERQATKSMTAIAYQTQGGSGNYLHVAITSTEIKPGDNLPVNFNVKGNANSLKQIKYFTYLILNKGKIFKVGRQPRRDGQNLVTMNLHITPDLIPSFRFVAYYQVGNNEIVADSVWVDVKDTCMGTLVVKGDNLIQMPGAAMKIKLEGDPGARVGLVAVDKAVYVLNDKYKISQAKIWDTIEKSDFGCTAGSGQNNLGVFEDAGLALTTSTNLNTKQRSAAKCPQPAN
FB, sequence (Q91132 733-984 partner limits assumed): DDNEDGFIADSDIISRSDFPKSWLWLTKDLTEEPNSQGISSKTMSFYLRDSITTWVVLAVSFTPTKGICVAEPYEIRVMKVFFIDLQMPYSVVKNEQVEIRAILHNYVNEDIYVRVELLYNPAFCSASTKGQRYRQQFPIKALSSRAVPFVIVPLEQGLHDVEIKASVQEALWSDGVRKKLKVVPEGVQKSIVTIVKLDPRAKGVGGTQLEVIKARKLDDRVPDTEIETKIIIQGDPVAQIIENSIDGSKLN
FB, sequence (Q91132 1264-1642 partner limits assumed): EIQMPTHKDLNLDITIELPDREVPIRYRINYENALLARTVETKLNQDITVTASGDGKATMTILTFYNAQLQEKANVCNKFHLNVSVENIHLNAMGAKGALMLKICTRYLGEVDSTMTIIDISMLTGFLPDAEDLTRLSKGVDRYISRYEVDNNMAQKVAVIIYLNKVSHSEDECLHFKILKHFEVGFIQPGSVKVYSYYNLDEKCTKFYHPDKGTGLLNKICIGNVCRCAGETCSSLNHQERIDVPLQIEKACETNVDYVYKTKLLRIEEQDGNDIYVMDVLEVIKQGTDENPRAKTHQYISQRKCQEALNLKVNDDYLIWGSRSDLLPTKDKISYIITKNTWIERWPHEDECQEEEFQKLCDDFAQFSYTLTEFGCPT

Row | SMILES | bioavailability [1] | AUC(0-t) [1] | bioavailability [2] | AUC(0-t) [2] | half-life [2] | Remaining % (T = 60 min) HLM0.5 [3] | Remaining % (T = 60 min) RLM0.5 [4] | Remaining % (T = 60 min) CLM0.5 [5] | bioavailability in monkeys [6] | oral exposure in monkeys [6] | Papp A→B at 2 h, 2 μM (Caco2 permeability test) | Papp B→A at 2 h, 2 μM (Caco2 permeability test) | permeability (Caco-2 cells) | Remaining % (T = 60 min) DLM0.5 [7] | Remaining % (T = 60 min) MouLM0.5 [8] | IC50 [9] | IC50 (FB) | Inhibition rate of C3a levels in mice (C3a levels in mice; Dosage 30 mg/kg) | Inhibition rate of C3a levels in mice (C3a levels in mice; Dosage 60 mg/kg)
1 | COc1cc(C)c2[nH]ccc2c1CN1CC[C@@H](C2CC2)C[C@H]1c1ccc(C(=O)O)cc1 [Trifluoroacetate of compound 5 (diastereomer 1), 4-((2S)-4-cyclopropyl-1-((5-methoxy-7-methyl-1H-indol-4-yl)methyl)piperidin-2-yl)benzoic acid] | 81.5% | 15900 ng·h/mL | 62.6% | 49300 ng·h/mL | 20.9 h | >90% | >90% | >90% | higher | higher | 2.17 ×10⁻⁶ cm/s | 23.9 ×10⁻⁶ cm/s | better | >90% | >90% | < 200 nM | – | – | –
2 | COc1cc(C)c2[nH]ccc2c1CN1CCC2(CCCO2)C[C@H]1c1ccc(C(=O)O)cc1 (single isomer, unassigned) [Trifluoroacetate of compound 2-b (diastereomer 2)] | – | – | – | – | – | – | – | – | – | – | – | – | – | – | – | < 200 nM | < 500 nM | 35.04% | 73.12%
